Tests used:
[1] = tested on: full thickness skin incisions; test: incision wound healing in mice, percent of healed wounds; type: in vivo, C57BL/6J mice; details: agent alone, all formulations (A-C); daily, 7 days; vs groups treated with formulations alone
Method: In vivo incision wound generation and inducement of inflammation: Full thickness (20 mm long) skin incisions were performed on the upper back of anesthetized C57BL/6J mice (6 mice per group). […] the incision, wounds were treated daily with insulin (10^−6 M; 0.1 units/ml); pseudosubstrate PKCα peptide, 1 μM (PKCα inhibitor); or Insulin+PKCα inhibitor (Myr-pseudosubstrate PKCα peptide, 1 μM and insulin 0.1 units) applied directly on the wounds in the various formulations (Formulations A-C) as described above. After 7 days, wounds were excised and the percentage of healed wounds was evaluated by examining the morphology and histology of the wounds. Results are presented as percent of healed wounds relative to the total number of wounds per group. […] Full thickness (20 mm long) skin incisions were performed on the upper back of anesthetized C57BL/6J mice (6 mice per group). […] After 7 days, wounds were excised and the percentage of healed wounds was evaluated by examining the morphology and histology of the wounds. […]

[2] = tested on: primary murine keratinocytes; test: in vitro scratch assay, wound closure with insulin in Formulation C and D; type: cell-based; details: insulin 0.1 units/ml, 48 hours
Method: Murine keratinocytes were isolated and cultured as described above. After five days, confluent keratinocytes were subjected in vitro scratch assays to follow wound healing. Following wound formation Insulin (insulin 10^−6 M; 0.1 units/ml) was added to the cell cultures in the various formulations (Formulation C and D) described above. Wound closure was followed for 48 hours. This experiment was carried out in triplicate. Wound closure is presented as the percent of closure following 48 hours of treatment in FIG. 6B.
Cultures of 5 day old, confluent keratinocytes were subjected to in vitro scratch assays and wound healing was examined. Following wound formation, Insulin (10^−6 M; 0.1 units/ml) was added to cell cultures in the various formulations (Formulation C and D) as described above. Wound closure was followed for 48 hours. Experiments were carried out in triplicate. (A) Photographs of representative cell culture dishes are presented. (B) Wound closure is presented as percent of closure following 48 hours of treatment. (C) Proliferation assays were performed on cultured cells in the wound using the thymidine incorporation proliferation assay described above.

[3] = tested on: primary murine keratinocytes; test: cell proliferation by [3H]thymidine incorporation; type: cell-based; details: insulin 0.1 units/ml
Method: Cell proliferation: Cell proliferation was measured by [^3H]thymidine incorporation in 6 well plates. Cells were pulsed with [^3H]thymidine (3 μCi/ml) for 1 h. After incubation, cells were washed five times with PBS and 5% TCA was added into each well for 1 h. The solution was removed and cells were solubilized in 1 M NaOH. The labeled thymidine incorporated into cells was counted in a ^3H-window of TRI-CARB™ liquid scintillation counter.
Next, proliferation of cultured cells in the wound was evaluated utilizing thymidine incorporation (FIG. 6C). Cell proliferation was measured by [^3H]thymidine incorporation in 6 well plates. Cells were placed in […] and pulsed with [^3H]thymidine (3 μCi/ml) for 1 h. After incubation, cells were washed five times with PBS and 5% TCA was added to each well for 1 h. This solution was then removed and cells were solubilized in 1 M NaOH. The labeled thymidine incorporated into the cells was counted in the ^3H-window of a liquid scintillation counter. As shown in FIGS. 6A-C the addition of KCl changed insulin induced wound closure and cell proliferation.
Cultures of 5 day old, confluent keratinocytes were subjected to in vitro scratch assays and wound healing was examined. Following wound formation, Insulin (10^−6 M; 0.1 units/ml) was added to cell cultures in the various formulations (Formulation C and D) as described above. […]

[4] = tested on: keratinocytes from the tails of adult mice; test: cell proliferation, Rapid Cell Proliferation Kit, pre-incubation in medium B; type: cell-based; details: pre-incubation of cells in medium B for 24 hours vs treatment parallel to medium change
Method: Medium A and B are both EMEM eagle's minimal essential medium from Biological Industries (Israel) containing 8% CHELEX™ treated fetal bovine serum. CHELEX™ is a strong chelator which binds free Ca^2+ and Mg^2+ ions to prevent these ions from being bioavailable to the cultured cells. […] The influence of pre-incubation of keratinocytes in medium B on the effects of Insulin and Insulin+PKCα inhibitor on cell proliferation in vitro was evaluated. Cultures of 5 day old, confluent keratinocytes from the tails of adult mice (7-10 months up to 2 years) were allowed to proliferate in vitro. After 5 days in MEM (medium A), the growth medium was changed to medium B (described above). Parallel to the medium changing or 24 hours following it, cells were treated with Insulin or with Insulin+PKCα inhibitor. The proliferation rate of the cells was measured with the commercially available Rapid Cell Proliferation Kit (Cat. No. QIA127; Calbiochem). The Experiment was carried out in hexaplicate. Results are presented as percent of untreated cells (control). […] Cultures of 5 day old, confluent keratinocytes prepared from the tails of adult mice (7-10 months up to 2 years) were subjected to proliferation assays utilizing a commercially available Rapid Cell Proliferation Kit (Cat. No. QIA127; Calbiochem). After 5 days in MEM, the growth medium was changed to medium B as described above. […]

[5] = Formulation D (Tris + KCl 0.4 mg/ml)

## Insulin: human recombinant insulin, identified as insulin, USP insulin or Ins USP
[1]
  healing of wounds (percent of healed wounds): did not promote wound healing efficacy
[2]; Formulation C (Tris)
  wound closure in vitro: inhibited insulin induced wound closure
[2]; [5]
  wound closure in vitro: induced partial wound closure
[3]; Formulation C (Tris)
  cell proliferation (thymidine incorporation): inhibited insulin induced wound closure and cell proliferation
[3]; [5]
  cell proliferation (thymidine incorporation): induced partial wound closure and cell proliferation
[4]
  effect on cell proliferation (percent of untreated cells): enhances the effects

Reference: patent US20100310542A1, “Pharmaceutical Compositions for treating wouds and related methods” (HEALOR LTD., priority 2007, published 2010)
